According to ChEMBL document CHEMBL3352029, “Ring fusion strategy for the synthesis of anthra[2,3-d]oxazole-2-thione-5,10-dione homologues as DNA topoisomerase inhibitors and as antitumor agents” (Eur J Med Chem, 2014):
Activity calls are given as the source filed them. The calls are words filed in the database; no cut-off is given here.

Legend:
[1] = target: T1, DNA topoisomerase 1 (Homo sapiens) (UniProt P11387); experiment: Inhibition of human recombinant DNA topoisomerase 1 assessed as reduction in relaxation of supercoiled pHOT DNA at 25 to 50 uM incubated for 45 mins by ethidium bromide staining based gel electrophoresis
T1 sequence (whole entry): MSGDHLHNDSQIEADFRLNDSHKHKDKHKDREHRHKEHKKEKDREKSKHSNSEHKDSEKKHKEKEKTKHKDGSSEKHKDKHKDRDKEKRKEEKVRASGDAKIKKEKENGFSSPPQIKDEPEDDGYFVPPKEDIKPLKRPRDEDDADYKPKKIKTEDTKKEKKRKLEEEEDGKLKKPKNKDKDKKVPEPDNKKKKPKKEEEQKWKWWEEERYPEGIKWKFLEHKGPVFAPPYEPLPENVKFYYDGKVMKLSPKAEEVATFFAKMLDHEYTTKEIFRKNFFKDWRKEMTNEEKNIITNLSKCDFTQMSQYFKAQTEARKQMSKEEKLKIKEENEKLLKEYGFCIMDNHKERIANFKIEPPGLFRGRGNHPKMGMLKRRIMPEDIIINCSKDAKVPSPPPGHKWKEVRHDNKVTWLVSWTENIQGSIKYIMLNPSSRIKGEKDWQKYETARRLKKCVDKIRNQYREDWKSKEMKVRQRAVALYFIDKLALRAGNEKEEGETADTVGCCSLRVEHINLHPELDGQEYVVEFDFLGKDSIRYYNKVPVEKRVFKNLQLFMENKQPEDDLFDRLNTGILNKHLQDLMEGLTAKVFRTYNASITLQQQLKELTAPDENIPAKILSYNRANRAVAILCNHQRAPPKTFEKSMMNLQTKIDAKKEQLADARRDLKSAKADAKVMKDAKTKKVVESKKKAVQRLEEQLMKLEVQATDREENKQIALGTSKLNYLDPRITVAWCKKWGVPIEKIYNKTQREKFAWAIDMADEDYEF

[2] = target: T1, DNA topoisomerase 1 (Homo sapiens); experiment: Inhibition of human recombinant DNA topoisomerase 1 assessed as reduction in relaxation of supercoiled pHOT DNA at 6.25 to 25 uM incubated for 45 mins by ethidium bromide staining based gel electrophoresis
[3] = tested on: RPMI-8226; experiment: Cytotoxicity against human RPMI8226 cells assessed as cell growth level at 10 uM after 48 hrs by sulforhodamine B assay; format: functional
[4] = tested on: HOP-92; experiment: Cytotoxicity against human HOP92 cells assessed as cell growth level at 10 uM after 48 hrs by sulforhodamine B assay; format: functional
[5] = tested on: NCI-H460; experiment: Cytotoxicity against human NCI-H460 cells assessed as cell growth level at 10 uM after 48 hrs by sulforhodamine B assay; format: functional
[6] = tested on: KM12; experiment: Cytotoxicity against human KM12 cells assessed as cell growth level at 10 uM after 48 hrs by sulforhodamine B assay; format: functional
[7] = tested on: SNB-19; experiment: Cytotoxicity against human SNB19 cells assessed as cell growth level at 10 uM after 48 hrs by sulforhodamine B assay; format: functional
[8] = tested on: SNB-75; experiment: Cytotoxicity against human SNB75 cells assessed as cell growth level at 10 uM after 48 hrs by sulforhodamine B assay; format: functional
[9] = tested on: U-251; experiment: Cytotoxicity against human U251 cells assessed as cell growth level at 10 uM after 48 hrs by sulforhodamine B assay; format: functional
[10] = tested on: Malme-3M; experiment: Cytotoxicity against human MALME-3M cells assessed as cell growth level at 10 uM after 48 hrs by sulforhodamine B assay; format: functional
[11] = tested on: M14; experiment: Cytotoxicity against human M14 cells assessed as cell growth level at 10 uM after 48 hrs by sulforhodamine B assay; format: functional
[12] = Cytotoxicity against human OVCAR8 cells assessed as cell growth level at 10 uM after 48 hrs by sulforhodamine B assay; format: functional, OVCAR-8
[13] = Cytotoxicity against human NCI-ADR-RES cells assessed as cell growth level at 10 uM after 48 hrs by sulforhodamine B assay; format: functional
[14] = tested on: MDA-MB-231; experiment: Cytotoxicity against human MDA-MB-231 cells assessed as cell growth level at 10 uM after 48 hrs by sulforhodamine B assay; format: functional
[15] = tested on: T47D; experiment: Cytotoxicity against human T47D cells assessed as cell growth level at 10 uM after 48 hrs by sulforhodamine B assay; format: functional

Row | SMILES | inhibition [1] | inhibition [2] | Activity [3] [%] | Activity [4] [%] | Activity [5] [%] | Activity [6] [%] | Activity [7] [%] | Activity [8] [%] | Activity [9] [%] | Activity [10] [%] | Activity [11] [%] | Activity [12] [%] | Activity [13] [%] | Activity [14] [%] | Activity [15] [%]
1 | CN(C)CCCSc1nc2cc3c(cc2o1)C(=O)c1ccccc1C3=O | Active | Dose-dependent effect | 84.91 | 34.36 | 60.58 | 82.13 | 90.07 | 88.28 | 87.74 | 101.35 | 101.41 | 72.26 | 90.68 | 71.49 | 82.2
2 | O=C1c2ccccc2C(=O)c2cc3oc(SCc4ccc(F)cc4)nc3cc21 |  |  | 96.5 | 74.13 | 84.05 | 104.72 | 104.56 | 88.45 | 96.4 | 89.8 | 103.58 | 94.89 | 91.27 | 103.32 | 102.69
3 | CCSc1nc2cc3c(cc2o1)C(=O)c1ccccc1C3=O |  |  | 91.04 | 72.67 | 100.33 | 101.43 | 99.9 | 96.42 | 94 | 91.75 | 98.8 | 92.46 | 95.82 | 90.66 | 96.02
